Holding throughout (type): functional
One experiment concerns Pichia kudriavzevii. As to the kind of experiment: Antifungal activity against Candida krusei by disk diffusion assay. A general note: Agar diffusion results depend on both activity and mobility in agar.
Experiment [1] relates to Candida albicans. As to the kind of experiment: Antifungal activity against Candida albicans 96-489 by disk diffusion assay.
Experiment [2] concerns Candida albicans. In words: Antifungal activity against Candida albicans ATCC 14503 by disk diffusion assay.
The next experiment concerns Nakaseomyces glabratus. In words: Antifungal activity against Candida glabrata by disk diffusion assay.
The test system of experiment [3] is Candida albicans. As to the kind of experiment: Antifungal activity against Candida albicans UCDFR1 by disk diffusion assay.
The next experiment concerns Phytophthora infestans. In words: Antifungal activity against Phytophthora infestans by disk diffusion assay.
In experiment [4] the test system is Pectobacterium carotovorum. As to the kind of experiment: Antibacterial activity against Erwinia carotovora by disk diffusion assay.
The test system of the next experiment is Erwinia amylovora. In words: Antibacterial activity against Erwinia amylovora by disk diffusion assay.

≈ marks a conversion by molar mass, not a printed value.

For orientation: MIC means the least concentration at which growth counts as inhibited.

On to `N[C@@H](CO)[C@@H](O)C[C@H](O)[C@@H](N)CO`, for which the MIC in the experiment with Pichia kudriavzevii, against Candida albicans [1], against Candida albicans [2], against Nakaseomyces glabratus and in the experiment on Candida albicans [3] was over 128 µg/mL throughout.
For `NC(=O)NC[C@H](NC(=O)[C@@H](O)[C@H](O)[C@H](N)[C@H](O)C[C@@H](O)[C@@H](N)CO)C(N)=O`, the MIC in the experiment with Pichia kudriavzevii is over 128 µg/mL; in the experiment on Phytophthora infestans, over 32 µg/mL; in experiment [4], over 128 µg/mL; against Candida albicans [1], over 128 µg/mL; against Candida albicans [2] it was over 128 µg/mL; against Nakaseomyces glabratus, over 128 µg/mL. For the same compound, the MIC in the experiment on Erwinia amylovora and with Candida albicans [3] was over 128 µg/mL in each case.
Consider `NC(=O)NC[C@H](NC(=O)[C@H](O)[C@@H](O)[C@@H](N)[C@@H](O)C[C@@H](O)[C@@H](N)CO)C(N)=O`, for which the minimal inhibitory concentration (MIC) in the experiment with Pichia kudriavzevii was over 128 µg/mL; in the experiment with Phytophthora infestans, over 32 µg/mL; in experiment [4], over 128 µg/mL; with Candida albicans [1], over 128 µg/mL; with Candida albicans [2] it was over 128 µg/mL; against Nakaseomyces glabratus it was over 128 µg/mL. The MIC against Erwinia amylovora and against Candida albicans [3] was over 128 µg/mL each time.
Turning to `NC(=O)NC[C@H](NC(=O)[C@H](O)[C@@H](O)[C@@H](N)[C@@H](O)C[C@H](O)[C@H](N)CO)C(N)=O`, the MIC was over 128 µg/mL in the experiment on Pichia kudriavzevii; over 32 µg/mL against Phytophthora infestans; 22.2 µg/mL (≈ 56 µM) in experiment [4]; 55.7 µg/mL (≈ 141 µM) with Candida albicans [1]; over 128 µg/mL against Candida albicans [2]; 59.5 µg/mL (≈ 150 µM) against Nakaseomyces glabratus. The MIC against Erwinia amylovora is 18.8 µg/mL (≈ 47.4 µM); with Candida albicans [3], over 128 µg/mL.
With `NC(=O)NC[C@H](NC(=O)[C@@H](O)[C@H](O)[C@H](N)CO)C(N)=O`, the MIC with Pichia kudriavzevii is over 128 µg/mL; with Phytophthora infestans it was over 32 µg/mL; in experiment [4] it was over 128 µg/mL; with Candida albicans [1] it was over 128 µg/mL; in the experiment on Candida albicans [2] it was over 128 µg/mL; in the experiment on Nakaseomyces glabratus, over 128 µg/mL. The MIC in the experiment with Erwinia amylovora and with Candida albicans [3] was over 128 µg/mL each time.
Consider `N[C@H](CO)[C@@H](O)C[C@H](O)[C@@H](N)CO`, for which the MIC with Pichia kudriavzevii, with Candida albicans [1], against Candida albicans [2], against Nakaseomyces glabratus and in the experiment with Candida albicans [3] was over 128 µg/mL throughout.
For `N[C@@H](CO)[C@H](O)C[C@H](O)[C@@H](N)CO`, the MIC in the experiment on Pichia kudriavzevii, against Candida albicans [1], in the experiment on Candida albicans [2], in the experiment with Nakaseomyces glabratus and in the experiment with Candida albicans [3] was over 128 µg/mL throughout.
On to `NC(=O)NC[C@@H](NC(=O)[C@@H](O)[C@H](O)[C@H](N)[C@H](O)C[C@@H](O)[C@@H](N)CO)C(N)=O` [ENT-ZWITTERMICIN A], for which the MIC was over 128 µg/mL against Pichia kudriavzevii; over 32 µg/mL in the experiment on Phytophthora infestans; over 128 µg/mL in experiment [4]; over 128 µg/mL against Candida albicans [1]; over 128 µg/mL in the experiment with Candida albicans [2]; over 128 µg/mL in the experiment on Nakaseomyces glabratus. In addition, the MIC with Erwinia amylovora and with Candida albicans [3] was over 128 µg/mL in each case.
With `N[C@H](CO)[C@H](O)C[C@H](O)[C@@H](N)CO`, the MIC against Pichia kudriavzevii, in the experiment on Candida albicans [1], in the experiment on Candida albicans [2], against Nakaseomyces glabratus and in the experiment on Candida albicans [3] was over 128 µg/mL in each case.
Consider `N[C@@H](CO)[C@H](O)C[C@@H](O)[C@@H](N)CO`, for which the MIC in the experiment on Pichia kudriavzevii, with Candida albicans [1], with Candida albicans [2], against Nakaseomyces glabratus and against Candida albicans [3] was over 128 µg/mL each time.
As to `NC(=O)NC[C@@H](NC(=O)[C@@H](O)[C@H](O)[C@H](N)CO)C(N)=O`, the MIC is over 128 µg/mL in the experiment on Pichia kudriavzevii; over 32 µg/mL with Phytophthora infestans; over 128 µg/mL in experiment [4]; over 128 µg/mL in the experiment with Candida albicans [1]; over 128 µg/mL against Candida albicans [2]; over 128 µg/mL with Nakaseomyces glabratus. The MIC in the experiment with Erwinia amylovora and in the experiment with Candida albicans [3] was over 128 µg/mL each time.
For the compound `N[C@H](CO)[C@@H](O)C[C@H](O)[C@H](N)CO`, the MIC with Pichia kudriavzevii is over 128 µg/mL; against Phytophthora infestans it was over 32 µg/mL; in experiment [4] it was over 128 µg/mL; against Candida albicans [1] it was over 128 µg/mL; against Candida albicans [2], over 128 µg/mL; in the experiment with Nakaseomyces glabratus it was over 128 µg/mL. The MIC in the experiment on Erwinia amylovora and against Candida albicans [3] was over 128 µg/mL in each case.
Regarding `N[C@H](CO)[C@H](O)C[C@H](O)[C@H](N)CO`, the MIC in the experiment with Pichia kudriavzevii, in the experiment with Candida albicans [1], against Candida albicans [2], against Nakaseomyces glabratus and with Candida albicans [3] was over 128 µg/mL each time.
In the case of `NC(=O)NC[C@@H](NC(=O)[C@H](O)[C@@H](O)[C@@H](N)[C@@H](O)C[C@@H](O)[C@@H](N)CO)C(N)=O`, the minimal inhibitory concentration (MIC) against Pichia kudriavzevii was over 128 µg/mL; with Phytophthora infestans, over 32 µg/mL; in experiment [4], over 128 µg/mL; with Candida albicans [1] it was over 128 µg/mL; in the experiment with Candida albicans [2], over 128 µg/mL; with Nakaseomyces glabratus, over 128 µg/mL. In addition, the MIC in the experiment on Erwinia amylovora and against Candida albicans [3] was over 128 µg/mL in each case.

Source of the values: ChEMBL document CHEMBL1156292, “Zwittermicin A: synthesis of analogs and structure-activity studies” (2010).
